How the values were obtained:
[1] = RAD001 levels in blood (trough)
[2] = Adverse event and safety assessment of RAD001 in elderly volunteers; assay type: in vivo, human; details: for Incidence of treatment-related AE: Blood cholesterol increased / Incidence of treatment-related AE: Conjunctivitis / Incidence of treatment-related AE: Diarrhea / Incidence of treatment-related AE: Dry mouth / Incidence of treatment-related AE: Dyspepsia / Incidence of treatment-related AE: Erythema / Incidence of treatment-related AE: Fatigue / Incidence of treatment-related AE: Headache / Incidence of treatment-related AE: Insomnia / Incidence of treatment-related AE: Limb discomfort / Incidence of treatment-related AE: Low density lipoprotein increased / Incidence of treatment-related AE: Mouth ulceration / Incidence of treatment-related AE: Mucosal inflammation / Incidence of treatment-related AE: Neutropenia / Incidence of treatment-related AE: Oral pain / Incidence of treatment-related AE: Paresthesia oral / Incidence of treatment-related AE: Pruritus / Incidence of treatment-related AE: Stomatitis / Incidence of treatment-related AE: Thrombocytopenia / Incidence of treatment-related AE: Tongue ulceration / Incidence of treatment-related AE: Urinary tract infection / Treatment-related AEs: Patients with AE(s) / Treatment-related AEs: Total AE(s): N = 53
Method: Adverse event assessment and blood collection for hematologic and biochemical safety assessments were performed during study visits. Adverse event information was also collected in diaries that subjects filled out at home during the 6 weeks they were on study drug. Data on all adverse events were collected from the time of informed consent until 30 days after the last study visit. Events were classified by the investigators as mild, moderate or severe.

[3] = Questionnaires on energy and exercise one year after dosing; assay type: in vivo, human; details: 0.5 mg daily cohort
[4] = system: A/H1N1 strain A/New Jersey/8/76 and A/H3N2 strain A/Victoria/361/11; set-up: species or system human; details: in vivo
[5] = Size exclusion chromatography (oligomerization state of expressed scFvs); assay type: physicochemical; details: purified scFv
Method: Size exclusion chromatography was performed to determine the oligomerization states of the expressed scFvs. 25 μg each was injected onto a TSKGel Super SW3000 4.6 mm×300 mm column (Tosoh Bioscience) heated to 35° C. The scFvs were eluted at 0.3 mL/min in 750 mM arginine, 1 mM EDTA, 20 mM sodium phosphate, 250 mM sodium chloride, pH 7.2; the UV absorbance was monitored at 280 nm.

CO[C@H]1C[C@@H]2CC[C@@H](C)[C@@](O)(O2)C(=O)C(=O)N2CCCC[C@H]2C(=O)O[C@H]([C@H](C)C[C@@H]2CC[C@@H](OCCO)[C@H](OC)C2)CC(=O)[C@H](C)/C=C(\C)[C@@H](O)[C@@H](OC)C(=O)[C@H](C)C[C@H](C)/C=C/C=C/C=C/1C [RAD001, (1R,9S,12S,15R,16E,18R,19R,21R,23 S,24E,26E,28E,30S,32S,35R)-1,18-dihydroxy-12-{(1R)-2-[(1 S,3R,4R)-4-(2-hydroxyethoxy)-3-methoxycyclohexyl]-1-methylethyl}-19,30-dimethoxy-15,17,21,23,29,35-hexamethyl-11,36-dioxa-4-aza-tricyclo[30.3.1.04,9]hexatriaconta-16,24,26,28-tetraene-2,3,10,14,20-pentaone]
average trough level ([1]; 0.5 mg daily): 0.9 ng/mL
average trough level ([1]; 5 mg weekly): below detection limits
average trough level ([1]; 20 mg weekly): 0.7 ng/mL
trough level of study regimens relative to approved regimens ([1]; in vivo): 3-20 fold lower
Incidence of treatment-related AE: Blood cholesterol increased ([2]; 0.5 mg daily): 2 (3.8%) n (%)
Incidence of treatment-related AE: Conjunctivitis ([2]; 0.5 mg daily): 0 n (%)
Incidence of treatment-related AE: Diarrhea ([2]; 0.5 mg daily): 1 (1.9%) n (%)
Incidence of treatment-related AE: Dry mouth ([2]; 0.5 mg daily): 0 n (%)
Incidence of treatment-related AE: Dyspepsia ([2]; 0.5 mg daily): 0 n (%)
Incidence of treatment-related AE: Erythema ([2]; 0.5 mg daily): 0 n (%)
Incidence of treatment-related AE: Fatigue ([2]; 0.5 mg daily): 0 n (%)
Incidence of treatment-related AE: Headache ([2]; 0.5 mg daily): 0 n (%)
Incidence of treatment-related AE: Insomnia ([2]; 0.5 mg daily): 1 (1.9%) n (%)
Incidence of treatment-related AE: Limb discomfort ([2]; 0.5 mg daily): 0 n (%)
Incidence of treatment-related AE: Low density lipoprotein increased ([2]; 0.5 mg daily): 2 (3.8%) n (%)
Incidence of treatment-related AE: Mouth ulceration ([2]; 0.5 mg daily): 6 (11.3%) n (%)
Incidence of treatment-related AE: Mucosal inflammation ([2]; 0.5 mg daily): 0 n (%)
Incidence of treatment-related AE: Neutropenia ([2]; 0.5 mg daily): 0 n (%)
Incidence of treatment-related AE: Oral pain ([2]; 0.5 mg daily): 0 n (%)
Incidence of treatment-related AE: Paresthesia oral ([2]; 0.5 mg daily): 2 (3.8%) n (%)
Incidence of treatment-related AE: Pruritus ([2]; 0.5 mg daily): 0 n (%)
Incidence of treatment-related AE: Stomatitis ([2]; 0.5 mg daily): 0 n (%)
Incidence of treatment-related AE: Thrombocytopenia ([2]; 0.5 mg daily): 0 n (%)
Incidence of treatment-related AE: Tongue ulceration ([2]; 0.5 mg daily): 3 (5.7%) n (%)
Incidence of treatment-related AE: Urinary tract infection ([2]; 0.5 mg daily): 0 n (%)
Treatment-related AEs: Patients with AE(s) ([2]; 0.5 mg daily): 22 (41.5%) n (%)
Treatment-related AEs: Total AE(s) ([2]; 0.5 mg daily): 35
Incidence of treatment-related AE: Blood cholesterol increased ([2]; 5 mg weekly): 2 (3.8%) n (%)
Incidence of treatment-related AE: Conjunctivitis ([2]; 5 mg weekly): 2 (3.8%) n (%)
Incidence of treatment-related AE: Diarrhea ([2]; 5 mg weekly): 4 (7.5%) n (%)
Incidence of treatment-related AE: Dry mouth ([2]; 5 mg weekly): 0 n (%)
Incidence of treatment-related AE: Dyspepsia ([2]; 5 mg weekly): 3 (5.7%) n (%)
Incidence of treatment-related AE: Erythema ([2]; 5 mg weekly): 2 (3.8%) n (%)
Incidence of treatment-related AE: Fatigue ([2]; 5 mg weekly): 2 (3.8%) n (%)
Incidence of treatment-related AE: Headache ([2]; 5 mg weekly): 2 (3.8%) n (%)
Incidence of treatment-related AE: Insomnia ([2]; 5 mg weekly): 2 (3.8%) n (%)
Incidence of treatment-related AE: Limb discomfort ([2]; 5 mg weekly): 2 (3.8%) n (%)
Incidence of treatment-related AE: Low density lipoprotein increased ([2]; 5 mg weekly): 1 (1.9%) n (%)
Incidence of treatment-related AE: Mouth ulceration ([2]; 5 mg weekly): 2 (3.8%) n (%)
Incidence of treatment-related AE: Mucosal inflammation ([2]; 5 mg weekly): 0 n (%)
Incidence of treatment-related AE: Neutropenia ([2]; 5 mg weekly): 0 n (%)
Incidence of treatment-related AE: Oral pain ([2]; 5 mg weekly): 2 (3.8%) n (%)
Incidence of treatment-related AE: Paresthesia oral ([2]; 5 mg weekly): 0 n (%)
Incidence of treatment-related AE: Pruritus ([2]; 5 mg weekly): 2 (3.8%) n (%)
Incidence of treatment-related AE: Stomatitis ([2]; 5 mg weekly): 0 n (%)
Incidence of treatment-related AE: Thrombocytopenia ([2]; 5 mg weekly): 0 n (%)
Incidence of treatment-related AE: Tongue ulceration ([2]; 5 mg weekly): 1 (1.9%) n (%)
Incidence of treatment-related AE: Urinary tract infection ([2]; 5 mg weekly): 0 n (%)
Treatment-related AEs: Patients with AE(s) ([2]; 5 mg weekly): 20 (37.7%) n (%)
Treatment-related AEs: Total AE(s) ([2]; 5 mg weekly): 46
Incidence of treatment-related AE: Blood cholesterol increased ([2]; 20 mg weekly): 2 (3.8%) n (%)
Incidence of treatment-related AE: Conjunctivitis ([2]; 20 mg weekly): 0 n (%)
Incidence of treatment-related AE: Diarrhea ([2]; 20 mg weekly): 1 (1.9%) n (%)
Incidence of treatment-related AE: Dry mouth ([2]; 20 mg weekly): 2 (3.8%) n (%)
Incidence of treatment-related AE: Dyspepsia ([2]; 20 mg weekly): 2 (3.8%) n (%)
Incidence of treatment-related AE: Erythema ([2]; 20 mg weekly): 0 n (%)
Incidence of treatment-related AE: Fatigue ([2]; 20 mg weekly): 4 (7.5%) n (%)
Incidence of treatment-related AE: Headache ([2]; 20 mg weekly): 9 (17.0%) n (%)
Incidence of treatment-related AE: Insomnia ([2]; 20 mg weekly): 1 (1.9%) n (%)
Incidence of treatment-related AE: Limb discomfort ([2]; 20 mg weekly): 0 n (%)
Incidence of treatment-related AE: Low density lipoprotein increased ([2]; 20 mg weekly): 2 (3.8%) n (%)
Incidence of treatment-related AE: Mouth ulceration ([2]; 20 mg weekly): 9 (17.0%) n (%)
Incidence of treatment-related AE: Mucosal inflammation ([2]; 20 mg weekly): 2 (3.8%) n (%)
Incidence of treatment-related AE: Neutropenia ([2]; 20 mg weekly): 3 (5.7%) n (%)
Incidence of treatment-related AE: Oral pain ([2]; 20 mg weekly): 1 (1.9%) n (%)
Incidence of treatment-related AE: Paresthesia oral ([2]; 20 mg weekly): 0 n (%)
Incidence of treatment-related AE: Pruritus ([2]; 20 mg weekly): 1 (1.9%) n (%)
Incidence of treatment-related AE: Stomatitis ([2]; 20 mg weekly): 2 (3.8%) n (%)
Incidence of treatment-related AE: Thrombocytopenia ([2]; 20 mg weekly): 2 (3.8%) n (%)
Incidence of treatment-related AE: Tongue ulceration ([2]; 20 mg weekly): 0 n (%)
Incidence of treatment-related AE: Urinary tract infection ([2]; 20 mg weekly): 2 (3.8%) n (%)
Treatment-related AEs: Patients with AE(s) ([2]; 20 mg weekly): 27 (50.9%) n (%)
Treatment-related AEs: Total AE(s) ([2]; 20 mg weekly): 109
deaths during the study ([2]; human, in vivo): No deaths
most common related AE ([2]; majority of mild severity): mouth ulcer
severe AEs assessed as related ([2]; mouth ulcers, 20 mg weekly): Only one severe AE
tolerability ([2]; particularly 0.5 mg daily and 5 mg weekly): well tolerated
serious adverse events (SAEs), relation to drug ([2]; three subjects, four SAEs): assessed as unrelated to RAD001
energy and exercise ability [3]: increased energy and exercise ability as compared to placebo
increase in HI GMT ratios for the heterologous strains [4]: higher in the RAD001 as compared to placebo cohorts
seroconversion rates for the heterologous strains [4]: higher in the RAD001 as compared to placebo cohorts

B1: M5: human anti-mesothelin scFv SEQ ID NO: 43; full CAR SEQ ID NO: 67 (protein)
scFv: QVQLVQSGAEVEKPGASVKVSCKASGYTFTDYYMHWVRQAPGQGLEWMGWINPNSGGTNYAQKFQGRVTMTRDTSISTAYMELSRLRSDDTAVYYCASGWDFDYWGQGTLVTVSSGGGGSGGGGSGGGGSGGGGSDIVMTQSPSSLSASVGDRVTITCRASQSIRYYLSWYQQKPGKAPKLLIYTASILQNGVPSRFSGSGSGTDFTLTISSLQPEDFATYYCLQTYTTPDFGPGTKVEIK
% Monomer (SEC) [5]: 82%

From patent publication US11999794B2, “Human mesothelin chimeric antigen receptors and uses thereof” (Novartis AG, priority 2013, dated 2024)
